According to patent publication US9217012B2, “Inhibitors of protein tyrosine phosphatases” (Indiana University Research and Technology Corporation, priority 2009, dated 2015):
Where a SMILES comes first, the peptide text is derived from it. [ ]: non-standard residue; d: D form. F2Pmp = N[CH](Cc1ccc(C(F)(F)P(=O)(O)O)cc1)C(=O)O

Assays:
TC-PTP = TC-PTP (Homo sapiens (Human), UniProt P17706); experiment: PTP activity assay with pNPP substrate, TC-PTP; type: biochemical; settings: for IC50: 2 mM pNPP, DMG buffer, 25° C., Table 1, read-out: IC50 for TC-PTP
Protocol: (§1) The PTP activity was assayed using p-nitrophenyl phosphate (pNPP) as a substrate in DMG buffer at 25° C. […] The reaction rate was measure using a SPECTRAMAX microplate spectrophotometer (Molecular Devices). For the determination of Km, the initial velocity and substrate concentration data were fitted to Michaelis-Menten equation using SIGMAPLOT. […] The assays were performed in 96-well plates. […] The reaction rate was measured using a Spectra Max Plus 384 Microplate Spectrophotometer (Molecular Devices). […] The reactions were incubated at room temperature for 30 min and quenched with 5N NaOH. The absorbance at 405 nm was read on the SpectraMax Plus 384 Microplate Spectrophotometer. For the reversibility test, the enzyme was incubated with the inhibitor at room temperature for 30 min before pNPP was added to initiate the reaction. The reaction was then incubated at room temperature for 30 min and quenched and read. […] Data were fitted using SigmaPlot Enzyme Kinetics Module (Systat Software, Inc.)

PTP1B = PTP1B (Homo sapiens (Human), UniProt P18031); experiment: PTP activity assay with pNPP substrate, PTP1B; type: biochemical; settings: 2 mM pNPP, DMG buffer, 25° C.; Table 1
Protocol: as §1

Chain of PTP1B (P18031 whole entry, species assumed): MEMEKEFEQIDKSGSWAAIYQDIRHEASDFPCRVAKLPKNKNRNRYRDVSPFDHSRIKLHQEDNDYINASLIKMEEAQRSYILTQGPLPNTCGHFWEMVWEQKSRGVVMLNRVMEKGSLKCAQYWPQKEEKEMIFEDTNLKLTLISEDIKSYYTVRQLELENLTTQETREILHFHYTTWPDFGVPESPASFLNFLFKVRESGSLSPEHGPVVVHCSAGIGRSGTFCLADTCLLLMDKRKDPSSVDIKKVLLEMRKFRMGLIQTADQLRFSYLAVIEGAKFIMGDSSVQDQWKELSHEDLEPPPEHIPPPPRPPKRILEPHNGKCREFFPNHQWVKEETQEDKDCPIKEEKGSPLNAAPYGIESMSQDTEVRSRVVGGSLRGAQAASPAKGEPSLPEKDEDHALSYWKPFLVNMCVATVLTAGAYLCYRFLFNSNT
Chain of TC-PTP (P17706 whole entry): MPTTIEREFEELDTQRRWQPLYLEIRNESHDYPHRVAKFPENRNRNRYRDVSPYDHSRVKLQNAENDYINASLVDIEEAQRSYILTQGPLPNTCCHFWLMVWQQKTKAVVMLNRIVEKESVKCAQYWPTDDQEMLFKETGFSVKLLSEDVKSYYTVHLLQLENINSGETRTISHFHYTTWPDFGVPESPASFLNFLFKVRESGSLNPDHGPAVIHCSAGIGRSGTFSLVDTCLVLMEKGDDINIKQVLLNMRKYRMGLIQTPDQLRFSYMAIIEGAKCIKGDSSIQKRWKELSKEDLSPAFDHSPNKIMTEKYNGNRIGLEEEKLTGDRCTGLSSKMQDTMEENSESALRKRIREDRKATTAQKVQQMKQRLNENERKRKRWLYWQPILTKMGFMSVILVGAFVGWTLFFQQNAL

SMILES | IC50 (TC-PTP) [nM] | IC50 (PTP1B) [nM] | selectivity for TC-PTP over PTP1B (TC-PTP; TC-PTP versus PTP1B) [fold] | fold lower TC-PTP IC50 than parent compound 4 (TC-PTP; relative to compound 4) [fold] | change in selectivity against PTP1B relative to 6 (TC-PTP; relative to compound 6) | fold increase in affinity for TC-PTP relative to 6 (TC-PTP; relative to compound 6) [fold]
CC(=O)NCCCCC(NC(=O)C(Cc1ccc(C(F)(F)P(=O)(O)O)cc1)NC(C)=O)C(N)=O (stereo not shown) [Compound 4] (Ac-[F2Pmp]-Lys(Ac)-NH2; configuration not given here) | 2000 | 2000 |  |  |  | 
CCc1ccc(C(=O)NCCCCC(NC(=O)C(Cc2ccc(C(F)(F)P(=O)(O)O)cc2)NC(C)=O)C(N)=O)cc1 (stereo not shown) [Compound 6] | 160 ± 20 | 700 ± 20 | 4.4 | 12.5 |  | 
CCc1ccc(C(=O)NCCCCC(NC(=O)C(Cc2ccc(C(F)(F)P(=O)(O)O)cc2)NC(=O)C(Cc2ccccc2)NC(C)=O)C(N)=O)cc1 (stereo not shown) [Compound 8] | 26 ± 2 | 87 ± 2 |  |  | no appreciable change | 6.2
